Assay results reported in patent US20250345392A1, “ANNEXIN A1 LIQUID PHARMACEUTICAL COMPOSITION” (ResoTher Pharma A/S, priority 2022, published 2025).
Like-named read-outs stand apart in the source and are kept apart here. Ends that are not written are not given here.

Assay: 14-day repeat IV dose toxicity study with toxicokinetic evaluation on Day 1 and 14 in dogs
Assay type: in vivo, beagle dogs
Conditions: dog; for C0 / AUC(0-inf) / clearance / half-life / Vd: in vivo
Description: Peptide 1 in blood samples collected from animals used in the studies (rat and dog) has been measured by an LC-MS/MS method. Analysis of samples collected in the pharmacokinetic study in rats was performed prior to validation of the method. Prior to analysis of samples from the GLP toxicology studies, the method was validated according to GLP to ensure that it is selective, accurate, reproducible, and able to produce reliable results. The method was validated over the range from 0.075 to 25 μg/mL Peptide 1.
In the 14-day intravenous toxicity study in beagle dogs (see study description below), samples were collected from 3 male and 3 female animals per group dosed at 0 (Control), 1, 3 or 10 mg/kg/day at 2, 5, 10, 20 and 40 minutes after dosing on Days 1 and 14. Samples were analysed for levels of Peptide 1.

## AMVSEFLKQAWFIENEEQEYVQTLKSSKGGPGSAVSPYPTFNPSSDV-NH2 [Peptide 1]
From 1 mg/kg to 10 mg/kg
  exposure (C(0) and AUCinf) versus dose: increase proportional to dose level
1 mg/kg, Group 2 (1 mg/kg), range over sexes and Days 1 and 14
  C0: 4580 to 8580 ng/mL
1 mg/kg, Group 2 (1 mg/kg), range over sexes and Days 1 and 14, read-out: AUCinf
  AUC(0-inf): 450 to 620 ng·h/mL
3 mg/kg, Group 3 (3 mg/kg), range over sexes and Days 1 and 14
  C0: 12500 to 20000 ng/mL
3 mg/kg, Group 3 (3 mg/kg), range over sexes and Days 1 and 14, read-out: AUCinf
  AUC(0-inf): 1420 to 1970 ng·h/mL
10 mg/kg, Group 4 (10 mg/kg), range over sexes and Days 1 and 14
  C0: 26400 to 58300 ng/mL
10 mg/kg, Group 4 (10 mg/kg), range over sexes and Days 1 and 14, read-out: AUCinf
  AUC(0-inf): 3930 to 4680 ng·h/mL
All groups, read-out: clearance
  clearance: 27.4 to 42.7 mL/min/kg
All groups, read-out: elimination half-life
  half-life: 4.66 to 6.59 min
iv, 1 mg/kg/day, IV 1.0 mg/kg/day, female, Day 1
  C0: 6990 ng/mL
iv, 1 mg/kg/day, IV 1.0 mg/kg/day, female, Day 1, read-out: AUC0-∞ (converted)
  AUC(0-inf): 537 ng·h/mL
iv, 1 mg/kg/day, IV 1.0 mg/kg/day, female, Day 1, read-out: Cl
  clearance: 33.1 mL/min/kg
iv, 1 mg/kg/day, IV 1.0 mg/kg/day, female, Day 1, read-out: T1/2
  half-life: 4.83 min
iv, 1 mg/kg/day, IV 1.0 mg/kg/day, female, Day 1, read-out: Vz
  Vd: 0.232 L/kg
iv, 1 mg/kg/day, IV 1.0 mg/kg/day, female, Day 14
  C0: 8580 ng/mL
iv, 1 mg/kg/day, IV 1.0 mg/kg/day, female, Day 14, read-out: AUC0-∞ (converted)
  AUC(0-inf): 620 ng·h/mL
iv, 1 mg/kg/day, IV 1.0 mg/kg/day, female, Day 14, read-out: Cl
  clearance: 27.4 mL/min/kg
iv, 1 mg/kg/day, IV 1.0 mg/kg/day, female, Day 14, read-out: T1/2
  half-life: 4.66 min
iv, 1 mg/kg/day, IV 1.0 mg/kg/day, female, Day 14, read-out: Vz
  Vd: 0.183 L/kg
iv, 1 mg/kg/day, IV 1.0 mg/kg/day, male, Day 1
  C0: 4580 ng/mL
iv, 1 mg/kg/day, IV 1.0 mg/kg/day, male, Day 1, read-out: AUC0-∞ (converted)
  AUC(0-inf): 450 ng·h/mL
iv, 1 mg/kg/day, IV 1.0 mg/kg/day, male, Day 1, read-out: Cl
  clearance: 37.1 mL/min/kg
iv, 1 mg/kg/day, IV 1.0 mg/kg/day, male, Day 1, read-out: T1/2
  half-life: 4.68 min
iv, 1 mg/kg/day, IV 1.0 mg/kg/day, male, Day 1, read-out: Vz
  Vd: 0.251 L/kg
iv, 1 mg/kg/day, IV 1.0 mg/kg/day, male, Day 14
  C0: 6590 ng/mL
iv, 1 mg/kg/day, IV 1.0 mg/kg/day, male, Day 14, read-out: AUC0-∞ (converted)
  AUC(0-inf): 550 ng·h/mL
iv, 1 mg/kg/day, IV 1.0 mg/kg/day, male, Day 14, read-out: Cl
  clearance: 31 mL/min/kg
iv, 1 mg/kg/day, IV 1.0 mg/kg/day, male, Day 14, read-out: T1/2
  half-life: 6.59 min
iv, 1 mg/kg/day, IV 1.0 mg/kg/day, male, Day 14, read-out: Vz
  Vd: 0.297 L/kg
iv, 3 mg/kg/day, IV 3.0 mg/kg/day, female, Day 1
  C0: 16100 ng/mL
iv, 3 mg/kg/day, IV 3.0 mg/kg/day, female, Day 1, read-out: AUC0-∞ (converted)
  AUC(0-inf): 1700 ng·h/mL
iv, 3 mg/kg/day, IV 3.0 mg/kg/day, female, Day 1, read-out: Cl
  clearance: 30.1 mL/min/kg
iv, 3 mg/kg/day, IV 3.0 mg/kg/day, female, Day 1, read-out: T1/2
  half-life: 5.7 min
iv, 3 mg/kg/day, IV 3.0 mg/kg/day, female, Day 1, read-out: Vz
  Vd: 0.248 L/kg
iv, 3 mg/kg/day, IV 3.0 mg/kg/day, female, Day 14
  C0: 20000 ng/mL
iv, 3 mg/kg/day, IV 3.0 mg/kg/day, female, Day 14, read-out: AUC0-∞ (converted)
  AUC(0-inf): 1970 ng·h/mL
iv, 3 mg/kg/day, IV 3.0 mg/kg/day, female, Day 14, read-out: Cl
  clearance: 25.9 mL/min/kg
iv, 3 mg/kg/day, IV 3.0 mg/kg/day, female, Day 14, read-out: T1/2
  half-life: 6.13 min
iv, 3 mg/kg/day, IV 3.0 mg/kg/day, female, Day 14, read-out: Vz
  Vd: 0.232 L/kg
iv, 3 mg/kg/day, IV 3.0 mg/kg/day, male, Day 1
  C0: 12500 ng/mL
iv, 3 mg/kg/day, IV 3.0 mg/kg/day, male, Day 1, read-out: AUC0-∞ (converted)
  AUC(0-inf): 1420 ng·h/mL
iv, 3 mg/kg/day, IV 3.0 mg/kg/day, male, Day 1, read-out: Cl
  clearance: 35.9 mL/min/kg
iv, 3 mg/kg/day, IV 3.0 mg/kg/day, male, Day 1, read-out: T1/2
  half-life: 6.01 min
iv, 3 mg/kg/day, IV 3.0 mg/kg/day, male, Day 1, read-out: Vz
  Vd: 0.318 L/kg
iv, 3 mg/kg/day, IV 3.0 mg/kg/day, male, Day 14
  C0: 19900 ng/mL
iv, 3 mg/kg/day, IV 3.0 mg/kg/day, male, Day 14, read-out: AUC0-∞ (converted)
  AUC(0-inf): 1850 ng·h/mL
iv, 3 mg/kg/day, IV 3.0 mg/kg/day, male, Day 14, read-out: Cl
  clearance: 27.4 mL/min/kg
iv, 3 mg/kg/day, IV 3.0 mg/kg/day, male, Day 14, read-out: T1/2
  half-life: 6.05 min
iv, 3 mg/kg/day, IV 3.0 mg/kg/day, male, Day 14, read-out: Vz
  Vd: 0.238 L/kg
iv, 10 mg/kg/day, IV 10 mg/kg/day, female, Day 1
  C0: 53400 ng/mL
iv, 10 mg/kg/day, IV 10 mg/kg/day, female, Day 1, read-out: AUC0-∞ (converted)
  AUC(0-inf): 4550 ng·h/mL
iv, 10 mg/kg/day, IV 10 mg/kg/day, female, Day 1, read-out: Cl
  clearance: 37.1 mL/min/kg
iv, 10 mg/kg/day, IV 10 mg/kg/day, female, Day 1, read-out: T1/2
  half-life: 5.41 min
iv, 10 mg/kg/day, IV 10 mg/kg/day, female, Day 1, read-out: Vz
  Vd: 0.288 L/kg
iv, 10 mg/kg/day, IV 10 mg/kg/day, female, Day 14
  C0: 58300 ng/mL
iv, 10 mg/kg/day, IV 10 mg/kg/day, female, Day 14, read-out: AUC0-∞ (converted)
  AUC(0-inf): 4570 ng·h/mL
iv, 10 mg/kg/day, IV 10 mg/kg/day, female, Day 14, read-out: Cl
  clearance: 36.7 mL/min/kg
iv, 10 mg/kg/day, IV 10 mg/kg/day, female, Day 14, read-out: T1/2
  half-life: 5.9 min
iv, 10 mg/kg/day, IV 10 mg/kg/day, female, Day 14, read-out: Vz
  Vd: 0.312 L/kg
iv, 10 mg/kg/day, IV 10 mg/kg/day, male, Day 1
  C0: 26400 ng/mL
iv, 10 mg/kg/day, IV 10 mg/kg/day, male, Day 1, read-out: AUC0-∞ (converted)
  AUC(0-inf): 3930 ng·h/mL
iv, 10 mg/kg/day, IV 10 mg/kg/day, male, Day 1, read-out: Cl
  clearance: 42.7 mL/min/kg
iv, 10 mg/kg/day, IV 10 mg/kg/day, male, Day 1, read-out: T1/2
  half-life: 5.09 min
iv, 10 mg/kg/day, IV 10 mg/kg/day, male, Day 1, read-out: Vz
  Vd: 0.318 L/kg
iv, 10 mg/kg/day, IV 10 mg/kg/day, male, Day 14
  C0: 51400 ng/mL
iv, 10 mg/kg/day, IV 10 mg/kg/day, male, Day 14, read-out: AUC0-∞ (converted)
  AUC(0-inf): 4680 ng·h/mL
iv, 10 mg/kg/day, IV 10 mg/kg/day, male, Day 14, read-out: Cl
  clearance: 36.6 mL/min/kg
iv, 10 mg/kg/day, IV 10 mg/kg/day, male, Day 14, read-out: T1/2
  half-life: 6 min
